Assay results published in PMC3763632, “Radiosynthesis and Radiotracer Properties of a 7-(2-[^18F]Fluoroethoxy)-6-methoxypyrrolidinylquinazoline for Imaging of Phosphodiesterase 10A with PET” (Pharmaceuticals, 2012).
Where “and” joins values, the source holds several entries; their conditions need not be identical. Identical values can stand only once. Like-named read-outs stand apart in the source and are kept apart here.

How the values were obtained:
PDE10A [1] = molecular target: T1, PDE10A (Homo sapiens, UniProt Q9Y233); conditions: cited from earlier work
T1 construct: purchased Biocrea GmbH, Radebeul, Germany; host or cells: SF21 insect cells (PDE10A-transfected; baculovirus system is mentioned)
T1 sequence (Q9Y233 whole entry, species assumed): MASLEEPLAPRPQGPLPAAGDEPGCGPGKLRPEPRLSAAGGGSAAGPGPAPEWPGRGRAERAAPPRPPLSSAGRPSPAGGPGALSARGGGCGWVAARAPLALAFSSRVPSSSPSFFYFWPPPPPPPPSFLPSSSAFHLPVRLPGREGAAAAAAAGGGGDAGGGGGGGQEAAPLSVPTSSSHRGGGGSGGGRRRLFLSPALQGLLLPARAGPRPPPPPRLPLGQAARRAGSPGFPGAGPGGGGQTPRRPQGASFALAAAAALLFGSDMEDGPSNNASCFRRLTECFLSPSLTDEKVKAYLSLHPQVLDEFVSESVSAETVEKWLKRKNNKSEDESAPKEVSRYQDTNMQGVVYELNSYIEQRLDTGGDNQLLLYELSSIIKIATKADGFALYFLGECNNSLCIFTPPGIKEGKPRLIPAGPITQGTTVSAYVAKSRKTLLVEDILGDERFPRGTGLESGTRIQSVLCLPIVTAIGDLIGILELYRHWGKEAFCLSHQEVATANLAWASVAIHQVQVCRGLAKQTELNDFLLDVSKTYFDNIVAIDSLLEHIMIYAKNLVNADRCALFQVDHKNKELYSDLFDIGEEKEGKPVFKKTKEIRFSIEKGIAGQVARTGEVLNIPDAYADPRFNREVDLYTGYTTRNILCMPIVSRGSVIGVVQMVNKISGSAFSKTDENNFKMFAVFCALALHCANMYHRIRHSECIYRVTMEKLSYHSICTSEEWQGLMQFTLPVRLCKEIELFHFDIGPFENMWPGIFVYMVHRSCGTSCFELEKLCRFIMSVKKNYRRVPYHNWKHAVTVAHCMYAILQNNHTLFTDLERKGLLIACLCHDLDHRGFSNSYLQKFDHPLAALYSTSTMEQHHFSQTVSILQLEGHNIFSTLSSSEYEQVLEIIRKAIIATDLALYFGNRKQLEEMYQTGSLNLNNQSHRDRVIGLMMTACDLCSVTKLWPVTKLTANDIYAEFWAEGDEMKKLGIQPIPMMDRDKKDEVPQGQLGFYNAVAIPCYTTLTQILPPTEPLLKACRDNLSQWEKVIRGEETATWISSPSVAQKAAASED

[2] = log D7.0 by RP-HPLC retention; type: physicochemical; conditions: MeCN/NH4OAc, pH 7.0, read-out: Log D
Source text: To clarify these findings, we determined the ligand distribution coefficients for [^18/19F]IV experimentally, under physiological pH conditions in solid-liquid phase systems via retention on RP-HPLC, and in liquid-liquid phase systems by conventional shake-flask method. […] All in one, an experimental log D7.0–7.4 value of ~2.7 promised a good potential for brain uptake of [^18F]IV in vivo, attended by low unspecific binding.
Referring to an OECD guideline and using a series of reference compounds (nitrobenzene, p-nitrophenol, benzene, toluene, chlorobenzene, benzophenone, naphthalene, 1,4-dibromobenzene, biphenyl, diphenylether, 1,4-diiodobenzene) with known log POW values comprised between 1.89 and 4.64, retention times were determined on two reversed phase columns (Multospher 120 RP-18 AQ, 250 mm × 4.6 mm, 5 μm, CS-Chromatographie Service GmbH, Langerwehe, Germany; SupelcosilTM ABZ + Plus, 250 × 4 mm, 5 μm, Supelco, Bellefonte, PA, USA). […] Dead times t0 were determined by retention of thiourea. Corresponding capacity factors k for all compounds were calculated and plotted as log k versus log P of the standard compounds, affording calibration curves (Microcal^TM Origin 6.0, Microcal Software, Inc., Northhampton, MA, USA). […]

PDE10A [3] = molecular target: T1, PDE10A; experiment: Homologous competitive binding on membrane homogenates of PDE10A-transfected SF21 cells; conditions: read-out: IC50 (homologous competition vs [18F]IV)
Method: The dissociation constant KD of [^18F]IV was determined in homologous competitive binding experiments by nonlinear regression analysis. Cell membrane homogenates from PDE10A-transfected SF21 cells (100 µg protein/mL incubation volume) were incubated with solutions of six concentrations of IV (working concentration 10 pM–[…]), each spiked with a fixed concentration of [^18F]IV (working concentration 0.05–0.1 nM).
Crude membrane homogenates isolated from PDE10A-transfected SF21 cells were obtained from Biocrea GmbH, Radebeul, Germany. For competitive radioligand displacement experiments (n = 2), the membrane preparations were diluted with incubation buffer (50 mM Tris-HCl, pH 7.4 at room temperature, 5 mM MgCl2) and re-homogenized by passing through a 27-gauge needle. The protein (100 µg) was incubated with 0.05–0.1 nM of [^18F]IV and different concentrations of IV (10 pM–1 µM), diluted from a 10 mM stock in DMSO, at a final volume of 1 mL. Nonspecific binding was determined in the presence of 10 µM of I, and control incubation was carried out accordingly using crude membrane preparations obtained from non-transfected SF21 cells.
Incubation at room temperature was terminated after 120 min by rapid filtration (Brandel 48-channel harvester; Biomedical Research and Development Lab. Inc., Gaithersburg, MD, USA) on Whatman GF/B glass-fiber filters, pre-soaked for 90 min in 0.3% polyethylenimine (Sigma, Deisenhofen, Germany), followed by washing four times with 4 mL of ice-cold wash buffer (50 mM Tris-HCl, pH 7.4 at 4 °C). Filter-bound radioactivity was quantified using a calibrated γ-counter (Wallac WIZARD, Perkin Elmer, Waltham, MA, USA).
Each experiment was carried out in triplicate. The binding parameter IC50 was estimated using iterative non-linear curve fitting. KD of [^18F]IV was estimated directly from homologous competition curve with KD = IC50-[radioligand] as well as from the respective saturation isotherm by nonlinear regression analysis.

PDE10A [4] = molecular target: T1, PDE10A; design: method as in earlier work; conditions: cited from earlier work
PDE3A = system: PDE3A; design: method as in earlier work; conditions: cited from earlier work
PDE4A = system: PDE4A; design: method as in earlier work; conditions: cited from earlier work
PDE 1B = system: PDE 1B; design: method as in earlier work; conditions: cited from earlier work
PDE 2A = system: PDE 2A; design: method as in earlier work; conditions: cited from earlier work
PDE 5A = system: PDE 5A; design: method as in earlier work; conditions: cited from earlier work
PDE 6 = system: PDE 6; design: method as in earlier work; conditions: cited from earlier work
PDE 7B = system: PDE 7B; design: method as in earlier work; conditions: cited from earlier work
PDE 8A = system: PDE 8A; design: method as in earlier work; conditions: cited from earlier work
PDE 9A = system: PDE 9A; design: method as in earlier work; conditions: cited from earlier work
PDE 11A = system: PDE 11A; design: method as in earlier work; conditions: cited from earlier work

Row | Compound | IC50 (PDE10A [1]) [nM] | pIC50,PDE10A (PDE10A [1]) | chromatographic logD ([2]; Multospher 120 RP-18 AQ column, Multospher) | chromatographic logD ([2]; Supelcosil ABZ+Plus column, Supelcosil) | IC50 (PDE10A [3]; mean, n = 2, 0.05–0.1 nM [18F]IV) [nM] | IC50 (PDE10A [3]; single experiments (n = 2)) | IC50 (PDE10A [4]; PDE10A) [nM] | Ki (PDE10A [4]; data to be published in detail elsewhere) [nM] | IC50 (PDE3A) [nM] | IC50 (PDE4A) [nM] | IC50 (PDE 1B) [nM] | IC50 (PDE 2A) [nM] | IC50 (PDE 5A) [nM] | IC50 (PDE 6) [nM] | IC50 (PDE 7B) [nM] | IC50 (PDE 8A) [nM] | IC50 (PDE 9A) [nM] | IC50 (PDE 11A) [nM]
1 | FCCn1cc(-c2ccncc2)c(-c2ccc(OCc3ccc4ccccc4n3)cc2)n1 [JNJ41510417] | 0.5 | 9.3 | – | – | – | – | – | – | – | – | – | – | – | – | – | – | – | –
2 | Cc1cnc(COc2ccc(-c3nn(CCF)cc3-c3ccncc3)cc2)c(C)c1 [JNJ42259152] | – | 8.8 | – | – | – | – | – | – | – | – | – | – | – | – | – | – | – | –
3 | COc1cc2c(N3CC[C@@H](Oc4cnc5ccccc5n4)C3)ncnc2cc1OCCF [IV, (R)-7-(2-fluoroethoxy)-6-methoxy-4-(3-(quinoxalin-2-yloxy)pyrrolidin-1-yl)quinazoline] | – | – | 2.63 | 2.63 | 39.3 | 38.3 nM and 40.4 nM | 105 | 53 | 88.7 | 562 | > 1000 | > 1000 | > 1000 | > 1000 | > 1000 | > 1000 | > 1000 | > 1000
